Here are results for five compounds from patent US8859534B2, “2-carboxamide-7-piperazinyl-benzofuran derivatives” (AstraZeneca AB, priority 2009, dated 2014).

The target in one assay is 5-HT1A receptor (Homo sapiens (Human), UniProt P08908). Description: 5-HT1A receptor competition binding assay (SPA, [3H]-8-OH-DPAT). The conditions noted are these: membranes of CHO cells expressing 5-HT1A receptors; radioligand [3H]-8-OH-DPAT 0.15-0.2 nM. An excerpt: (§1) Assays that were used to measure affinity of the compounds of the present invention for 5-HT1A and 5-HT1B receptors are described in J. Recept Signal Transduct. Res. 22:483-495 (2002) and Naunyn-Schmiedeberg's Arch Pharmacol. 356:328-334 (1997) and incorporated by reference herein. These assays were be used with some modifications:
(§2) For the binding assay stably transfected chinese hamster ovary (CHO) cell lines expressing 5-HT1A receptors or 5-HT1B receptors were harvested by centrifugation at 300×g for 10 min and resuspended in 10 mM Tris-HCl, 5 mM EDTA at pH 7.4. The cells were pooled, recentrifuged and resuspended before homogenisation using a Dounce homogeniser (“type B”). Cell membranes were centrifuged at 48 000×g for 10 min and then resuspended in harvesting buffer using an Ultra-Turrax T8 (IKA Labortechnik, Germany), aliquots were stored frozen in −70° C.
Frozen membrane preparations were thawed, homogenized with an Ultra-Turrax and mixed with SPA beads (YSI coated WGA, GE Healthcare/Amersham, Buckinghamshire, UK) in assay buffer containing 50 mM Tris-Base, 4 mM MgCl2, 4 mM CaCl2 (only 5-HT1B), 1 mM EDTA, and adjusted to pH 7.4 with HCl. […] The binding assays were performed in 384-well plates in a final volume of 90 μL/well with the following additions: 9 μL binding buffer; 1 μL compound/DMSO/nonspecific; 20 μL radioligand; and 60 μL beads/membrane mixture. Non-specific binding was defined by using 10 μM WAY100635 for 5-HT1A and 10 μM Methiothepin for 5-HT1B. The assay plates were incubated for 4 hours where after the plates are counted in a Wallac 1450 Microbeta Trilux counter (PerkinElmer LifeScience, US) or similar. Data from the experiments were analyzed using a four parameter logistic equation as follows: Y=Bottom+(Top-Bottom)/1+10^(LogEC50-X)nH.

In another assay the target is 5-HT1B receptor (Homo sapiens (Human), UniProt P28222). Nature of the assay: 5-HT1B receptor competition binding assay (SPA, [3H]-GR125743). Conditions: membranes of CHO cells expressing 5-HT1B receptors; radioligand [3H]-GR125743 0.15-0.2 nM.
Sequence of 5-HT1B receptor (P28222 whole entry): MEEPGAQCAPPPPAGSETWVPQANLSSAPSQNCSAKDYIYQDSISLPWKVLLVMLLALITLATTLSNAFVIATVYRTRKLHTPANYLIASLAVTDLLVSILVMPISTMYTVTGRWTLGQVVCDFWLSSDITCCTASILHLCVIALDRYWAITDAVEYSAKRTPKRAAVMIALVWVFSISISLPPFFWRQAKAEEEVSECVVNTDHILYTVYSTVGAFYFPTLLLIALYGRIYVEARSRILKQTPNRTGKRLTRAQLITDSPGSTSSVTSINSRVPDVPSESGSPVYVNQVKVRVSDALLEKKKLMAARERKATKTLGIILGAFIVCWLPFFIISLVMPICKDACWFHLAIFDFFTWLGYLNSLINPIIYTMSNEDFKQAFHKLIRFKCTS
Description: as §1, §2
Frozen membrane preparations were thawed, homogenized with an Ultra-Turrax and mixed with SPA beads (YSI coated WGA, GE Healthcare/Amersham, Buckinghamshire, UK) in assay buffer containing 50 mM Tris-Base, 4 mM MgCl2, 4 mM CaCl2 (only 5-HT1B), 1 mM EDTA, and adjusted to pH 7.4 with HCl. The beads/membrane solution, final concentration 100 pM receptors for 5-HT1A, 300 pM receptors for 5-HT1B and 0.5 mg SPA beads/well, was pre-incubated in room temperature with stirring for 30-60 min. […] Five (log interval, 10 μM to 1 nM, final concentration) or ten serial dilutions (½-log interval, 10 μM to 0.32 nM, final concentration) of compounds were prepared in DMSO from 10 mM stock solutions. The binding assays were performed in 384-well plates in a final volume of 90 μL/well with the following additions: 9 μL binding buffer; 1 μL compound/DMSO/nonspecific; 20 μL radioligand; and 60 μL beads/membrane mixture. Non-specific binding was defined by using 10 μM WAY100635 for 5-HT1A and 10 μM Methiothepin for 5-HT1B. The assay plates were incubated for 4 hours where after the plates are counted in a Wallac 1450 Microbeta Trilux counter (PerkinElmer LifeScience, US) or similar. Data from the experiments were analyzed using a four parameter logistic equation as follows: Y=Bottom+(Top-Bottom)/1+10^(LogEC50-X)nH.
• Jerning E., Rosqvist S., Mohell N. (2002) NAD-299 antagonises 5-HT-stimulated and Spiperone-inhibited [^35S]GTPγS binding in cloned 5-HT1A receptors. J Recept Signal Transduct Res 22:483-495. • Doménech T., Beleta J., Palacios J. M. (1997) Characterization of human serotonin 1D and 1B receptors using [^3H]-GR-125743, a novel radiolabelled serotonin 5HT1D/1B receptor antagonist. Naunyn-Schmiedeberg's Arch Pharmacol 356:328-334.

Sequence of 5-HT1A receptor (P08908 whole entry): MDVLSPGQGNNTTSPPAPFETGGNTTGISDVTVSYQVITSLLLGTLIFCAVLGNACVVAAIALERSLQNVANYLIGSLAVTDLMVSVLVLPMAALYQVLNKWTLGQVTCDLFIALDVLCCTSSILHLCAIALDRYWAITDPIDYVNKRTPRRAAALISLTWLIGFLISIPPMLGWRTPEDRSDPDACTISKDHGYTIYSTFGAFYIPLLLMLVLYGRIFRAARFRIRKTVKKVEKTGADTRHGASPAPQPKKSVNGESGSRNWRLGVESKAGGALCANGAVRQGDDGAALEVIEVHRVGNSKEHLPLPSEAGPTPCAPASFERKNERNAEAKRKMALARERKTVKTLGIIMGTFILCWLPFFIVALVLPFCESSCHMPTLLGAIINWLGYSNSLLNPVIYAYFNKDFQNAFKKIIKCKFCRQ

In general, Ki refers to the equilibrium dissociation constant of an inhibitor or competing ligand from its target. On to `CNC(=O)c1cc2cccc(N3CCN(CCc4ccccn4)CC3)c2o1` [Example 12, N-Methyl-7-(4-(2-(pyridin-2-yl)ethyl)piperazin-1-yl)benzofuran-2-carboxamide], for which the results for the Ki on 5-HT1A receptor and at 5-HT1B receptor were 0.11 nM and 0.88 nM, respectively.

Regarding `CC(=O)N1CCc2cc(CCN3CCN(c4cccc5cc(C(=O)N(C)C)oc45)CC3)ccc21` [Example 38, 7-(4-(2-(1-Acetylindolin-5-yl)ethyl)piperazin-1-yl)-N,N-dimethylbenzofuran-2-carboxamide], the inhibition constant (Ki) on 5-HT1A receptor was determined as 0.064 nM; at 5-HT1B receptor it was 1.6 nM.

As for `CS(=O)(=O)c1ccc(CNC(=O)c2cc3cccc(N4CCN(CCc5ccccn5)CC4)c3o2)cc1` [Example 4, N-(4-(Methylsulfonyl)benzyl)-7-(4-(2-(pyridin-2-yl)ethyl)piperazin-1-yl)benzofuran-2-carboxamide], the inhibition constant Ki worked out at 0.2 nM on 5-HT1A receptor and 1.8 nM at 5-HT1B receptor.

As to `Cc1ccc(CCN2CCN(c3cccc4cc(C(=O)N(C)C)oc34)CC2)nc1` [Example 40, N,N-dimethyl-7-(4-(2-(5-methylpyridin-2-yl)ethyl)piperazin-1-yl)benzofuran-2-carboxamide], the results for the Ki at 5-HT1A receptor and at 5-HT1B receptor were 0.14 nM and 1.3 nM, respectively.

Turning to `CC(NC(=O)c1cc2cccc(N3CCN(CCc4ccccn4)CC3)c2o1)c1ccccn1` (stereo not shown) [Example 7, N-(1-(Pyridin-2-yl)ethyl)-7-(4-(2-(pyridin-2-yl)ethyl)piperazin-1-yl)benzofuran-2-carboxamide], the inhibitory constant (Ki) at 5-HT1A receptor was 0.59 nM; on 5-HT1B receptor, 9 nM.
